Like-named read-outs stand apart in the source and are kept apart here.
What was measured:
[1] = tested on: K. pneumoniae strains presenting high levels of resistance; experiment: Bacterial growth on K. pneumoniae strains presenting high levels of resistance; type: cell-based, Klebsiella pneumoniae; set-up: key to Effects (0 < 1 < 2 < 3): 0 = no effect; 1 = pure only; 2 = several concs; 3 = strong at each; conditions: for Effects (0 < 1 < 2 < 3): molecules at 1, 0.5 and 0.1 mg/ml, triclosan at 0.1 mg/ml
Protocol: (§1) The bacterial growth is evaluated by measuring the optical density (DO) at 600 nm using NanoDrop.
(§2) This ratio permits a classification of the molecules in 4 effect levels: • 0=no effect observed; • 1=effect observed only when the molecule is tested pure; • 2=effect observed at several concentrations, but which gradually decreases the dilutions; • 3=strong effect observed at each concentration of molecule tested.
(§3) Compounds of the invention were tested on 4 strains of E. coli, 3 strains of K. pneumoniae and 4 strains of S. aureus with the resistance profiles below.

[2] = tested on: E. coli strains presenting high levels of resistance; experiment: Bacterial growth on E. coli strains presenting high levels of resistance; type: cell-based, Escherichia coli; set-up: key to Effects (0 < 1 < 2 < 3): 0 = no effect; 1 = pure only; 2 = several concs; 3 = strong at each; conditions: for Effects (0 < 1 < 2 < 3): molecules at 1, 0.5 and 0.1 mg/ml, triclosan at 0.1 mg/ml
Protocol: as §1, §2, §3

[3] = tested on: S. aureus strains presenting high levels of resistance; experiment: Bacterial growth on S. aureus strains presenting high levels of resistance; type: cell-based, Staphylococcus aureus; set-up: key to Effects (0 < 1 < 2 < 3): 0 = no effect; 1 = pure only; 2 = several concs; 3 = strong at each; conditions: for Effects (0 < 1 < 2 < 3): molecules at 1, 0.5 and 0.1 mg/ml, triclosan at 0.1 mg/ml
Protocol: as §1, §2, §3

[4] = tested on: KB cells (epidermoid carcinoma); experiment: In vitro cytotoxicity, cell proliferation test (MTS) on KB cells; type: cell-based; conditions: Homo sapiens, read-out: percentage of inhibition of cell growth
Protocol: The human cell strain KB (epidermoid carcinoma) was obtained from the NCI (National Cancer Institute) and cultivated in the D-MEM medium added with 10% of foetal bovine serum (Invitrogen) in the presence of penicillin, streptomycin and fungizone in flasks of […] under CO2 at 5%. The cells were deposited on tissue culture microplates with 96 wells and a density of 650 cells/well in 200 μl of medium and treated 24 hours later with compounds of the invention dissolved in DMSO at concentrations going from 0.5 nM to 10 μM using a Biomek 3000 (Beckman-Coulter) automaton. The controls received the same volume of DMSO (1% of final volume). After 72 hours of exposure, the MTS reagent (Celltiter 96Aqueous One solution, Promega) was added and incubated for 3 hours at 37° C.: the absorbance was measured at 490 nm and the results of inhibition of the cell proliferation were calculated according to the ratio [(1−(OD490treated/OD490control))×100].
Results: Cytotoxicity at 10^−5 and 10^−6M on Triplicate KB Cells, Measured after 72 Hours of Exposure.
The percentage of inhibition of cell growth with respect to the cells receiving the same quantity of DMSO is outlined in the table below.

Klebsiella pneumoniae = experiment: Bacterial growth screening on wild-type phenotype strain, K. pneumoniae; type: cell-based
Protocol: as §1, §2
(§4) A screening of molecules of the invention on several wild-type phenotype strains has been carried out.
(§5) The strains initially selected are: • Gram+: Streptococcus equi subsp zooepidemicus and Staphylococcus aureus • Gram−: Escherichia coli, Klebsiella pneumoniae and Stenotrophomonas maltophila.

[5] = tested on: Micrococcus luteus reference strain; experiment: Bacterial growth (optical density at 600 nm) on Micrococcus luteus reference strain; type: cell-based; set-up: key: 0 = no effect, 1 = pure only, 2 = several concentrations, 3 = strong at all; conditions: in DMSO diluted in PBS, compared with triclosan
Protocol: as §1, §2
The molecules are put in a solution in DMSO and diluted in PBS.

Escherichia coli = experiment: Bacterial growth screening on wild-type phenotype strain, E. coli; type: cell-based
Protocol: as §1, §2, §4, §5

[6] = tested on: Streptococcus equi subsp zooepidemicus; experiment: Bacterial growth screening on wild-type phenotype strain, S. zooepidemicus; type: cell-based
Protocol: as §1, §2, §4, §5

Staphylococcus aureus = experiment: Bacterial growth screening on wild-type phenotype strain, S. aureus; type: cell-based
Protocol: as §1, §2, §4, §5

[7] = tested on: Stenotrophomonas maltophila; experiment: Bacterial growth screening on wild-type phenotype strain, S. maltophila; type: cell-based
Protocol: as §1, §2, §4, §5

[8] = K. pneumoniae Strain 1, 0.1 mg/ml
[9] = K. pneumoniae Strain 2, 0.1 mg/ml
[10] = K. pneumoniae Strain 3, 0.1 mg/ml
[11] = 10^−5 M, KB cells, triplicate, 72 hours of exposure, with respect to DMSO control
[12] = 10^−6 M, KB cells, triplicate, 72 hours of exposure, with respect to DMSO control

## Oc1cc(Cl)ccc1Oc1ccc(Cl)cc1Cl [Triclosan, reference compound]
[1]; [8]
  Δ DO: 0.824
[1]; K. pneumoniae Strain 1
  Effects (0 < 1 < 2 < 3): 3
[1]; [9]
  Δ DO: 0.893
[1]; K. pneumoniae Strain 2
  Effects (0 < 1 < 2 < 3): 3
[1]; [10]
  Δ DO: 1.092
[1]; K. pneumoniae Strain 3
  Effects (0 < 1 < 2 < 3): 3
[2]; E. coli Strain 1, 0.1 mg/ml
  Δ DO: 1.005
[2]; E. coli Strain 1
  Effects (0 < 1 < 2 < 3): 3
[2]; E. coli Strain 2, 0.1 mg/ml
  Δ DO: 1.197
[2]; E. coli Strain 2
  Effects (0 < 1 < 2 < 3): 3
[2]; E. coli Strain 3, 0.1 mg/ml
  Δ DO: 0.948
[2]; E. coli Strain 3
  Effects (0 < 1 < 2 < 3): 3
[2]; E. coli Strain 4, 0.1 mg/ml
  Δ DO: 1.080
[2]; E. coli Strain 4
  Effects (0 < 1 < 2 < 3): 3
[3]; S. aureus Strain 1, 0.1 mg/ml
  Δ DO: 0.441
[3]; S. aureus Strain 1
  Effects (0 < 1 < 2 < 3): 3
[3]; S. aureus Strain 2, 0.1 mg/ml
  Δ DO: 0.459
[3]; S. aureus Strain 2
  Effects (0 < 1 < 2 < 3): 3
[3]; S. aureus Strain 3, 0.1 mg/ml
  Δ DO: 0.532
[3]; S. aureus Strain 3
  Effects (0 < 1 < 2 < 3): 3
[3]; S. aureus Strain 4, 0.1 mg/ml
  Δ DO: 0.490
[3]; S. aureus Strain 4
  Effects (0 < 1 < 2 < 3): 3
[4]; KB, 72 h
  inhibition at 1 µM: 5 ± 12%
  inhibition at 10 µM: 78 ± 3%

## COc1cc(O)c(F)cc1Cl [sr7580]
[4]; [11]
  inhibition at 10 µM: 16 ± 4%
[4]; [12]
  inhibition at 1 µM: 5 ± 8%

## COc1cc(O)c(Cl)cc1F [sr7581]
[4]; [11]
  inhibition at 10 µM: 0%
[4]; [12]
  inhibition at 1 µM: 0%

## COc1cc(O)c(Br)cc1Br [sr7582]
[4]; KB, 72 h
  inhibition at 1 µM: 0%
  inhibition at 10 µM: 1 ± 7%

## COc1cc(O)c(Cl)cc1Br [sr7583]
Klebsiella pneumoniae
  Effect level, K. pneumoniae: 2
[5]
  Effect level: 3
Escherichia coli
  Effect level, E. coli: 2
[4]; [11]
  inhibition at 10 µM: 0%
[4]; [12]
  inhibition at 1 µM: 0%

## COc1cc(O)c(I)cc1I [sr7584]
[5]
  Effect level: 2
[4]; KB, 72 h
  inhibition at 1 µM: 0%
  inhibition at 10 µM: 0%

## COc1cc(O)c(Cl)c(Cl)c1Cl [sr7585]
Klebsiella pneumoniae
  Effect level, K. pneumoniae: 2
[6]
  Effect level, S. zooepidemicus: 3
Staphylococcus aureus
  Effect level, S. aureus: 3
[5]
  Effect level: 3
[1]; [8]
  Δ DO: 0.251
[1]; K. pneumoniae Strain 1, 0.5 mg/ml
  Δ DO: 0.595
[1]; K. pneumoniae Strain 1, 1 mg/ml
  Δ DO: 0.644
[1]; K. pneumoniae Strain 1
  Effects (0 < 1 < 2 < 3): 3
[1]; [9]
  Δ DO: 0.035
[1]; K. pneumoniae Strain 2, 0.5 mg/ml
  Δ DO: 0.620
[1]; K. pneumoniae Strain 2, 1 mg/ml
  Δ DO: 0.701
[1]; K. pneumoniae Strain 2
  Effects (0 < 1 < 2 < 3): 2
[1]; [10]
  Δ DO: 0.265
[1]; K. pneumoniae Strain 3, 0.5 mg/ml
  Δ DO: 0.683
[1]; K. pneumoniae Strain 3, 1 mg/ml
  Δ DO: 0.872
[1]; K. pneumoniae Strain 3
  Effects (0 < 1 < 2 < 3): 2
[2]; E. coli Strain 1, 0.1 mg/ml
  Δ DO: 0.196
[2]; E. coli Strain 1, 0.5 mg/ml
  Δ DO: 0.746
[2]; E. coli Strain 1, 1 mg/ml
  Δ DO: 0.920
[2]; E. coli Strain 1
  Effects (0 < 1 < 2 < 3): 3
[2]; E. coli Strain 2, 0.1 mg/ml
  Δ DO: 0.313
[2]; E. coli Strain 2, 0.5 mg/ml
  Δ DO: 0.964
[2]; E. coli Strain 2, 1 mg/ml
  Δ DO: 1.097
[2]; E. coli Strain 2
  Effects (0 < 1 < 2 < 3): 3
[2]; E. coli Strain 3, 0.1 mg/ml
  Δ DO: 0.186
[2]; E. coli Strain 3, 0.5 mg/ml
  Δ DO: 0.736
[2]; E. coli Strain 3, 1 mg/ml
  Δ DO: 0.893
[2]; E. coli Strain 3
  Effects (0 < 1 < 2 < 3): 3
[2]; E. coli Strain 4, 0.1 mg/ml
  Δ DO: 0.322
[2]; E. coli Strain 4, 0.5 mg/ml
  Δ DO: 0.848
[2]; E. coli Strain 4, 1 mg/ml
  Δ DO: 0.979
[2]; E. coli Strain 4
  Effects (0 < 1 < 2 < 3): 3
[3]; S. aureus Strain 1, 0.1 mg/ml
  Δ DO: 0.352
[3]; S. aureus Strain 1, 0.5 mg/ml
  Δ DO: 0.445
[3]; S. aureus Strain 1, 1 mg/ml
  Δ DO: 0.445
[3]; S. aureus Strain 1
  Effects (0 < 1 < 2 < 3): 3
[3]; S. aureus Strain 2, 0.1 mg/ml
  Δ DO: 0.385
[3]; S. aureus Strain 2, 0.5 mg/ml
  Δ DO: 0.458
[3]; S. aureus Strain 2, 1 mg/ml
  Δ DO: 0.457
[3]; S. aureus Strain 2
  Effects (0 < 1 < 2 < 3): 3
[3]; S. aureus Strain 3, 0.1 mg/ml
  Δ DO: 0.459
[3]; S. aureus Strain 3, 0.5 mg/ml
  Δ DO: 0.529
[3]; S. aureus Strain 3, 1 mg/ml
  Δ DO: 0.530
[3]; S. aureus Strain 3
  Effects (0 < 1 < 2 < 3): 3
[3]; S. aureus Strain 4, 0.1 mg/ml
  Δ DO: 0.405
[3]; S. aureus Strain 4, 0.5 mg/ml
  Δ DO: 0.491
[3]; S. aureus Strain 4, 1 mg/ml
  Δ DO: 0.486
[3]; S. aureus Strain 4
  Effects (0 < 1 < 2 < 3): 3
Escherichia coli
  Effect level, E. coli: 3
[4]; [11]
  inhibition at 10 µM: 0%
[4]; [12]
  inhibition at 1 µM: 0%
[7]
  Effect level, S. maltophila: 2

## COc1c(Cl)cc(Cl)c(O)c1Cl [sr7586]
[4]; [11]
  inhibition at 10 µM: 0%
[4]; [12]
  inhibition at 1 µM: 6 ± 8%

## COc1c(Cl)c(O)c(Cl)c(F)c1Cl [sr7587]
[4]; [11]
  inhibition at 10 µM: 0%
[4]; [12]
  inhibition at 1 µM: 8 ± 4%

## COc1c(Cl)cc(Cl)c(O)c1C [sr7607]
[5]
  Effect level: 2
[4]; [11]
  inhibition at 10 µM: 0%
[4]; [12]
  inhibition at 1 µM: 0%

## COc1cc(O)c(Cl)c(C)c1Cl [sr7608]
[5]
  Effect level: 2
[4]; [11]
  inhibition at 10 µM: 7 ± 11%
[4]; [12]
  inhibition at 1 µM: 0%

## COc1cc(O)c(Cl)c(Br)c1 [sr7609]
Klebsiella pneumoniae
  Effect level, K. pneumoniae: 2
Staphylococcus aureus
  Effect level, S. aureus: 2
[5]
  Effect level: 3
Escherichia coli
  Effect level, E. coli: 2
[7]
  Effect level, S. maltophila: 2

## COc1cc(O)c(Cl)c(F)c1F [sr7610]
[5]
  Effect level: 2

## COc1cc(O)c(Br)c(F)c1F [sr7611]
[5]
  Effect level: 2

## COc1cc(O)c(I)c(F)c1F [sr7612]
[5]
  Effect level: 2

## COc1cc(O)c(Cl)c(Br)c1F [sr7614]
Klebsiella pneumoniae
  Effect level, K. pneumoniae: 2
[6]
  Effect level, S. zooepidemicus: 2
Staphylococcus aureus
  Effect level, S. aureus: 2
[5]
  Effect level: 3
Escherichia coli
  Effect level, E. coli: 3
[4]; [11]
  inhibition at 10 µM: 6 ± 4%
[4]; [12]
  inhibition at 1 µM: 0%
[7]
  Effect level, S. maltophila: 2

## Oc1cc(I)c(F)cc1F [sr7618]
[5]
  Effect level: 2

Source: patent US20210337789A1, “Derivatives of m-Guaiacol, Their Preparation and Their Uses” (Universite de Caen Normandie, priority 2018, published 2021)
